# From publication PMC9241695, “Selective Metal Chelation by a Thiosemicarbazone Derivative Interferes with Mitochondrial Respiration and Ribosome Biogenesis in Candida albicans” (Microbiology Spectrum, 2022)
# Key:
# C. krusei CK1 = assay: Microbroth dilution MIC80; assay type: cell-based, Candida krusei; details: Pichia kudriavzevii; C. krusei CK1; read-out: MIC80
# Text: (§1) Compound library. The thiosemicarbazone derivatives Triapine and COTI-2 were purchased from Med Chem Express (MCE). The other 87 thiosemicarbazones used in this study were previously synthesized by our collaborators (1, 2). Their structures are shown in Table 1 and Table S1 to help the reader clearly understand the relationship between structure and activity.
# (§2) Strains and culture conditions. Clinically derived C. albicans isolates, including G5, F5, and Gu5, were kindly provided by Professor Joachim Morschhäuser of the University of Würzburg. Other clinical C. albicans isolates were kindly donated by Professor Qingguo Qi of Shandong University and Qianfoshan Hospital of Shandong Province Other Candida strains were obtained from Jinan Central Hospital.
# (§3) The zap1 mutant and its complemented strain were kindly provided by Professor Aaron P. Mitchell of Carnegie Mellon University (3). The C. neoformans strains used in this study was kindly donated by Professor Guojian Liao of Southwest University and A. fumigatus strain used in this study was provided by Professor Ling Lu of Nanjing Normal University. Before in vitro and in vivo experiments, all C. albicans strains were grown on YPD agar plates. After culturing at 30°C for 24 h, colonies of each strain were cultured in liquid YPD medium at 30°C with continuous shaking […]
# (§4) Antifungal susceptibility testing. To determine in vitro antifungal activities, the microbroth dilution method was carried out in RPMI1640 medium according to the guidelines of the Clinical and Laboratory Standards Institute (4, 5). The initial concentration in RPMI1640 medium was 1 × 10^3 CFU/mL for the C. albicans and C. neoformans suspensions but 1 × 10^4 CFU/mL for A. fumigatus. The range of final drug concentrations was 0.0156–64 μg/mL. The plates were incubated at35°C for 24 […]
# (§5) h (for C. albicans, C. krusei, C. tropicalis, C. parapsilosis) or 48 h (for C. neoformans, A. fumigatus). The MIC was determined based on visible growth inhibition compared with the control. All experiments were performed in duplicate. […]
# A. fumigatus AF293 = assay: Antifungal susceptibility testing, microbroth dilution MIC; assay type: cell-based; details: Aspergillus fumigatus, AF293; standard strain of A. fumigatus; 48 h; read-out: MIC (μg/mL) against fungi AF293
# Text: as §1, §2
# (§6) The zap1 mutant and its complemented strain were kindly provided by Professor Aaron P. Mitchell of Carnegie Mellon University (3). The C. neoformans strains used in this study was kindly donated by Professor Guojian Liao of Southwest University and A. fumigatus strain used in this study was provided by Professor Ling Lu of Nanjing Normal University. […]
# as §4, §5
# C. neoformans H99 = assay: as above; assay type: cell-based; details: Cryptococcus neoformans, H99; C. neoformans wild-type strain; 48 h; read-out: MIC (μg/mL) against fungi H99
# Text: as §1, §2, §6, §4, §5
# C. albicans G5 = assay: microbe, parasite or virus in culture; assay type: cell-based; details: Candida albicans; C. albicans G5; read-out: MIC80
# Text: as §1, §2, §3, §4, §5
# C. albicans Gu5 = assay: microbe, parasite or virus in culture; assay type: cell-based; details: Candida albicans; C. albicans Gu5; read-out: MIC80
# Text: as §1, §2, §3, §4, §5
# C. albicans SC5314 [1] = assay: G. mellonella infection model; assay type: in vivo, Galleria mellonella; details: 19ak 0.4 μg per larva, FLC 2 μg per larva
# Experimental: The G. mellonella infection model was used to evaluate the in vivo activity of 19ak in terms of survival, fungal burden, and histological features. A total of 60 larvae of similar size were selected and randomly allocated to four groups. The last right foreleg of each larva was injected with 10 μL of C. albicans SC5314 suspension (2 × 10^7 CFU/mL). Two hours after infection, the larvae were injected with 10 μL of drug or vehicle as follows for the four groups: 19ak (0.4 μg per larva), FLC (2 μg per larva), control (PBS), and blank control (no injection with C. albicans but injections of sterile PBS twice). The data for the blank control are not shown because this group survived well during the experiment. Failure to respond to light contact with forceps was considered a sign of larval death. In the survival assay, the number of surviving larvae in each group was calculated at the same time every day for 4 days.
# To determine fungal burden, larval infection and treatment were performed as described above with groups of 30 larvae each. Each day, five larvae were randomly selected from each group and homogenized with glass beads in 0.5 mL of sterile PBS. The homogenate was serially diluted with sterile PBS, and 5 μL was spread on a yeast-peptone-dextrose solid plate ([62]). Experiments were performed at least three times independently.
# We also conducted histopathological studies to explore the therapeutic effects of the drugs on G. mellonella fungal infection. First, the groups of larvae were infected as described above. After 48 h, three larvae from each group were randomly selected and fixed in 4% paraformaldehyde for sectioning and Periodic acid-Schiff (PAS) staining. The tissue was observed and photographed under an Olympus microscope with 40 × magnification (IX71, Olympus, Tokyo, Japan). The experiments were performed independently a minimum of three times.
# C. albicans 28I = assay: Microbroth dilution MIC80; assay type: cell-based; details: Candida albicans; C. albicans 28I; read-out: MIC80
# Text: as §1, §2, §3, §4, §5
# C. albicans YEM13 = assay: Microbroth dilution MIC80; assay type: cell-based; details: Candida albicans
# Text: as §1, §2, §3, §4, §5
# C. albicans 28A = assay: Microbroth dilution MIC80; assay type: cell-based; details: Candida albicans; C. albicans 28A; read-out: MIC80
# Text: as §1, §2, §3, §4, §5
# C. albicans 28D = assay: Microbroth dilution MIC80; assay type: cell-based; details: Candida albicans; C. albicans 28D; read-out: MIC80
# Text: as §1, §2, §3, §4, §5
# C. tropicalis CT2 = assay: Microbroth dilution MIC80; assay type: cell-based; details: Candida tropicalis; C. tropicalis CT2; read-out: MIC80
# Text: as §1, §2, §3, §4, §5
# A. fumigatus 1161 = assay: Microbroth dilution MIC80; assay type: cell-based; details: Aspergillus fumigatus; A. fumigatus 1161; read-out: MIC80
# Text: as §1, §2, §3, §4, §5
# C. albicans YEM15 = assay: Microbroth dilution MIC80; assay type: cell-based; details: Candida albicans; C. albicans YEM15; read-out: MIC80
# Text: as §1, §2, §3, §4, §5
# C. albicans CA3 = assay: Microbroth dilution MIC80; assay type: cell-based; details: Candida albicans; C. albicans CA3; read-out: MIC80
# Text: as §1, §2, §3, §4, §5
# C. albicans 11f = assay: Microbroth dilution MIC80; assay type: cell-based; details: Candida albicans; C. albicans 11f; read-out: MIC80
# Text: as §1, §2, §3, §4, §5
# C. albicans F5 = assay: Microbroth dilution MIC80; assay type: cell-based; details: Candida albicans; C. albicans F5; read-out: MIC80
# Text: as §1, §2, §3, §4, §5
# C. albicans DSY654 = assay: Microbroth dilution MIC80; assay type: cell-based; details: Candida albicans
# Text: as §1, §2, §3, §4, §5
# C. albicans CA1 = assay: Microbroth dilution MIC80; assay type: cell-based; details: Candida albicans; C. albicans CA1; read-out: MIC80
# Text: as §1, §2, §3, §4, §5
# C. albicans 24g = assay: Microbroth dilution MIC80; assay type: cell-based; details: Candida albicans; C. albicans 24g; read-out: MIC80
# Text: as §1, §2, §3, §4, §5
# C. albicans CA4 = assay: Microbroth dilution MIC80; assay type: cell-based; details: Candida albicans; C. albicans CA4; read-out: MIC80
# Text: as §1, §2, §3, §4, §5
# C. neoformans 108 = assay: Microbroth dilution MIC80; assay type: cell-based; details: Cryptococcus neoformans; C. neoformans 108; read-out: MIC80
# Text: as §1, §2, §3, §4, §5
# C. albicans 11e = assay: Microbroth dilution MIC80; assay type: cell-based; details: Candida albicans; C. albicans 11e; read-out: MIC80
# Text: as §1, §2, §3, §4, §5
# C. albicans SC5314 [2] = assay: Drug resistance study by serial passage; assay type: cell-based, Candida albicans; details: RPMI 1640 medium, 40-day period, passages at 0.5 × MIC
# C. parapsilosis CP001 = assay: Microbroth dilution MIC80; assay type: cell-based, Candida parapsilosis; details: Lodderomyces parapsilosis; C. parapsilosis CP001; read-out: MIC80
# Text: as §1, §2, §3, §4, §5
# C. albicans SC5314 [3] = assay: Antifungal susceptibility testing, microbroth dilution MIC; assay type: cell-based; details: Candida albicans, SC5314; C. albicans wild-type strain; RPMI1640, 35°C, 24 h; read-out: MIC (μg/mL) against fungi SC5314
# Text: as §1, §2, §3, §4, §5
smiles,measurement,setting,value
"OC(Cn1cncn1)(Cn1cncn1)c1ccc(F)cc1F [FLC, fluconazole, reference compound]",MIC80,C. krusei CK1,2 µg/mL
same,MIC,A. fumigatus AF293,> 64 µg/mL
same,MIC,C. neoformans H99,2 µg/mL
same,MIC80,C. albicans G5,> 128 µg/mL
same,MIC80,C. albicans Gu5,> 128 µg/mL
same,Histopathology of infected larvae,"C. albicans SC5314 [1]; 48 h, PAS staining",fewer infected areas
same,Fungal burden of infected larvae,C. albicans SC5314 [1]; compared with the control group,greatly reduced the fungal burden
same,MIC80,C. albicans 28I,> 128 µg/mL
same,MIC80,C. albicans YEM13,64 µg/mL
same,MIC80,C. albicans 28A,> 128 µg/mL
same,MIC80,C. albicans 28D,> 128 µg/mL
same,MIC80,C. tropicalis CT2,2 µg/mL
same,MIC80,A. fumigatus 1161,> 64 µg/mL
same,MIC80,C. albicans YEM15,64 µg/mL
same,MIC80,C. albicans CA3,2 µg/mL
same,MIC80,C. albicans 11f,1 µg/mL
same,MIC80,C. albicans F5,> 128 µg/mL
same,MIC80,C. albicans DSY654,0.25 µg/mL
same,MIC80,C. albicans CA1,2 µg/mL
same,MIC80,C. albicans 24g,1 µg/mL
same,MIC80,C. albicans CA4,8 µg/mL
same,MIC80,C. neoformans 108,2 µg/mL
same,MIC80,C. albicans 11e,1 µg/mL
same,Change of MIC after repeated exposure,C. albicans SC5314 [2],significant increase in the MIC value
same,MIC80,C. parapsilosis CP001,1 µg/mL
same,MIC,C. albicans SC5314 [3],2 µg/mL
